{"source": "paper PMC9681850", "about": "“Structural basis of synthetic agonist activation of the nuclear receptor REV-ERB” (Nature Communications, 2022)", "key": {"[1]": {"tested_on": "proliferating C2C12 mouse myoblast cells", "assay": "cell viability by crystal violet staining", "type": "cell-based", "conditions": "for cell viability (Fig. 2b source data): crystal violet, normalized to DMSO, single replicates; for reduction in cellular viability: proliferating C2C12 cells", "experimental": "(§1) Cellular viability was tested in two cell types, human hepatocarcinoma HepG2 cells and proliferating C2C12 mouse myoblast cells.\n(§2) Data are presented as mean ± SEM. Source data are available as a Source Data file.\n(§3) The human hepatocellular carcinoma cell line, HepG2 cells (ATCC HB-8065), were cultured in 10% FBS 1% L-Glu MEM at 37 °C in a humidified atmosphere of 5% CO2. Prior to RNA extraction cells were treated with either DMSO or REV-ERB agonist for 24 h. The C2C12 proliferating mouse myoblast cells (ATCC, CRL-1772) were cultured in 10% FBS DMEM at 37 °C in a humidified atmosphere of 5% CO2. Prior to RNA extraction cells were treated with either DMSO or REV-ERB agonist for 24 h. […]\n(§4) […] Media was removed, and cells were incubated with 0.5% crystal violet solution for 20 min at room temperature with mild agitation. Cells were washed four times with tap water before being air drying overnight. Cells were incubated in methanol for 20 min with mild agitation. Absorbance was read at 570 nm, and readings were normalized to vehicle (DMSO) treated cells."}, "HepG2 cells": {"tested_on": "HepG2 cells", "assay": "cell viability by crystal violet staining", "type": "cell-based, human", "conditions": "for cell viability (Fig 2a source data): crystal violet, normalized to DMSO, single replicates", "experimental": "as §1, §2, §3, §4"}, "REV-ERB regulated genes": {"tested_on": "REV-ERB regulated genes", "set-up": "method as in ref 17 re-assessed; ref 48", "conditions": "RNA-seq data of ref 17 re-assessed; cited from earlier work"}, "BMAL1 in HepG2 cells": {"tested_on": "BMAL1 in HepG2 cells", "assay": "expression of BMAL1 by qPCR", "type": "cell-based, human", "set-up": "key: Bmal1 expression normalized to Ppia", "conditions": "5 μM, 24 h, single replicates (n = 4)", "text": "We next determined whether STL1267 can regulate characterized REV-ERB modulated genes in cell lines expressing REV-ERB naturally. Five micromolar doses of both drugs were used in cell-based experiments from this point on. REV-ERB is an established component of the core molecular clock repressing the expression of core clock gene Bmal1[6],[27] as well as others[28],[29]. […] In skeletal muscle, REV-ERB agonism increases the expression of a wide variety of genes important in mitochondrial function.\nThe human hepatocellular carcinoma cell line, HepG2 cells (ATCC HB-8065), were cultured in 10% FBS 1% L-Glu MEM at 37 °C in a humidified atmosphere of 5% CO2. Prior to RNA extraction cells were treated with either DMSO or REV-ERB agonist for 24 h. The C2C12 proliferating mouse myoblast cells (ATCC, CRL-1772) were cultured in 10% FBS DMEM at 37 °C in a humidified atmosphere of 5% CO2. Prior to RNA extraction cells were treated with either DMSO or REV-ERB agonist for 24 h. Prior to crystal violet cytotoxicity assay, cells were treated with either DMSO or REV-ERB agonist for 48 h.\nMouse tissue was homogenized using a bullet blender. DNA/protein was removed by phase separation using BCP/chloroform. The supernatant (RNA containing fraction) was collected, and RNA was precipitated using isopropanol. The RNA pellets were washed with 75% ethanol and resolubilized in RNAse free water. […]"}, "[2]": {"biological_target": "NCoR1-VP16 fusion protein (a fragment of the NCoR1 corepressor)", "assay": "two-hybrid reporter assay (Gal4-FL REV-ERBα/NCoR1-VP16)", "conditions": "HEK293 cells with Gal4UAS luciferase reporter; read at the highest dose shared with WT, log [STL1267] (µM) about 0.4; parent: est. 49; read off a plot"}}, "note": "Several values for one entry are separate records, joined by “and”; a condition that tells them apart may be missing. Equal values may be shown once.", "data": [{"compound": "CCOC(=O)N1CCC(CN(Cc2ccc(Cl)cc2)Cc2ccc([N+](=O)[O-])s2)C1", "note": "(centres unmarked) [SR9009, reference compound]", "values": [{"measurement": "cell viability (Fig. 2b source data)", "setting": "[1]; C2C12, 1 uM", "result": "96.141 and 87.1558 and 95.0006 and 119.571 and 103.64"}, {"measurement": "cell viability (Fig. 2b source data)", "setting": "[1]; C2C12, 2 uM", "result": "73.3671 and 83.0434 and 96.4175 and 95.0006 and 98.2145 and 106.301 and 112.141 and 107.994"}, {"measurement": "cell viability (Fig. 2b source data)", "setting": "[1]; C2C12, 5 uM", "result": "97.5233 and 96.3829 and 104.02 and 104.331 and 114.111 and 109.239 and 109.791 and 104.884"}, {"measurement": "cell viability (Fig. 2b source data)", "setting": "[1]; C2C12, 10 uM", "result": "81.4883 and 68.2525 and 56.4681 and 49.4183 and 62.032 and 78.1707 and 78.3435 and 86.2228"}, {"measurement": "cell viability (Fig. 2b source data)", "setting": "[1]; C2C12, 20 uM", "result": "29.4436 and 32.6575 and 37.392 and 34.0399 and 33.6597 and 55.6387 and 64.9695 and 68.7363"}, {"measurement": "reduction in cellular viability", "setting": "[1]; 10 μM", "result": "~ 25%"}, {"measurement": "reduction in cellular viability", "setting": "[1]; 20 μM", "result": "~ 50%"}, {"measurement": "cell viability (Fig 2a source data)", "setting": "HepG2 cells; HepG2, 1uM, listed as SR009", "result": "97.2789 and 85.5104 and 113.189 and 114.805 and 107.077 and 107.33 and 98.8951 and 92.8847"}, {"measurement": "cell viability (Fig 2a source data)", "setting": "HepG2 cells; HepG2, 2uM, listed as SR909", "result": "100.006 and 84.3488 and 101.774 and 112.583 and 88.7935 and 85.3589 and 86.1671 and 96.3697"}, {"measurement": "cell viability (Fig 2a source data)", "setting": "HepG2 cells; HepG2, 5uM", "result": "99.2992 and 90.5108 and 87.6823 and 102.582 and 76.621 and 82.8335 and 95.5616 and 87.3793"}, {"measurement": "cell viability (Fig 2a source data)", "setting": "HepG2 cells; HepG2, 10uM", "result": "106.875 and 80.1566 and 109.199 and 93.9453 and 73.8936 and 70.661 and 84.7528 and 82.682"}, {"measurement": "cell viability (Fig 2a source data)", "setting": "HepG2 cells; HepG2, 20uM", "result": "91.723 and 73.742 and 95.107 and 95.2585 and 84.7528 and 75.1058 and 92.3796 and 105.158"}, {"measurement": "reduction in cell viability", "setting": "HepG2 cells; HepG2 cells, 10 and 20 μM", "result": "~ 10%"}, {"measurement": "REV-ERB regulated genes still regulated in Rev-erbα/β DKO hepatocytes", "setting": "REV-ERB regulated genes", "result": 39, "unit": "%"}, {"measurement": "Bmal1 (Fig. 2c) expression", "setting": "BMAL1 in HepG2 cells", "result": "0.6576 and 0.6833 and 0.6229 and 0.6990"}]}, {"compound": "full length human REV-ERBα fused to the GAL4 DNA-binding domain (wild type) (from UniProt P20393) F443A", "values": [{"measurement": "response (Normalized RLU)", "setting": "[2]", "result": 7}]}, {"compound": "full length human REV-ERBα fused to the GAL4 DNA-binding domain (wild type) (from UniProt P20393) F488A", "values": [{"measurement": "response (Normalized RLU)", "setting": "[2]", "result": 73}]}]}
